Results: patent publication US8034768B2, “Composition and method for the treatment of diseases affected by histone deacetylase inhibitors” (Board of Regents, The University of Texas System, priority 2007, dated 2011)
Starred links: 1 amine or outer side, 2 acyl side, 3 side chain; linkers in the order of their positions; H or OH if unused. Positions of bridges follow the written chain, without caps; N, C: chain ends. Non-standard residues stand in square brackets, D forms with d. Residues, ends and D or L forms follow the SMILES beside them. 1Nal = N[C@@H](Cc1cccc2ccccc12)C(=O)O; 2Nal = N[C@@H](Cc1ccc2ccccc2c1)C(=O)O; Cysteamide = C(CS[*:3])N[*:1]

Assays:
[1] = tested on: prostate cancer cells; format: cell-based, human
Protocol: (§1) To evaluate anti-tumoral activity of the modified FK228 analogues, human transitional carcinoma cell lines T24, TCCSUP, 253J and human prostate cancer cell lines PC-3, LNCaP, Du-145 were cultured in T medium (Invitrogen) supplemented with 5% fetal bovine serum and 1% penicillin-streptomycin. 2×10^3 Cells in 50 μL of medium were plated into each well of a 96-well plate one day before adding compound. Each compound was diluted with DMSO to two folds of the concentrations, then 50 μL of the compound-containing medium was added into cells. Each treatment was in triplicate. Three days later, cell proliferation was measured with a cell proliferation kit (Roche). Briefly, 10 μL of MTT (3-[4,5-dimethylthiazol-2-yl]-2,5-diphenyl tetrazolium bromide) was added into each well for 4 hours, then 100 μL of the solubilization solution was added and cells were incubated for overnight. The spectrophotometrical absorbance of the samples was measured with a SpectraMax M5 plate reader (Molecular Devices) at 565 nm. The data were presented as percentage inhibition using non-treated cells as control.
FIGS. 9-11 are graphs showing dose-dependent growth inhibition of cancer cells (prostate and bladder cancers) by modified FK228 analogues. […] FIG. 10 includes the general structure in FIG. 10A including R groups. The R groups are defined in FIG. 10B and growth inhibition for the specific composition depicted in FIG. 10B are shown in FIG. 10C. […] Similarly, FIG. 11 includes the general structure in FIG. 1A including R groups. The R groups are defined in FIG. 1B and growth inhibition for the specific composition depicted in FIG. 10B are shown in FIG. 1C. […] FIG. 11A is a structure of the modified FK228 analogues and the side chain functional groups of the structure in FIG. 11A is shown in FIG. 11B. FIG. 11C is a graph of the activity as a function of side chain seen in FIG. 11B.

[2] = tested on: 3 prostate and 3 bladder cancer cells; assay: MTT cell proliferation assay on a variety of cancer cells (FIG. 10); format: cell-based, human
Protocol: as §1
FIGS. 9-11 are graphs showing dose-dependent growth inhibition of cancer cells (prostate and bladder cancers) by modified FK228 analogues. […] FIG. 10 includes the general structure in FIG. 10A including R groups. […]

[3] = tested on: K562 cells; assay: Cell viability of K562 cells treated for γ-globin expression study; format: cell-based; conditions: about 48 hours, about 0.3 μM
Protocol: The synthesized modified FK228 analogues of the present invention were assessed to examine their capability to induce γ-globin expression. K562 cells were treated with the synthesized modified FK228 analogues at various concentrations (e.g., between about 0.01 nM and about 10 μM) for about 48 hours and expression of γ-globin was determined by real-time PCR as well as checking cell viability.

Compound	GI50 [1] [nM]	cytotoxicity on a variety of cancer cells [2]	cell viability [3]
CC(C)[C@H]1NC(=O)C[C@@H]2NC(=O)[C@H](Cc3ccccc3)NC(=O)[C@H](Cc3ccccc3)NC(=O)[C@@H](CSSCCNC2=O)NC1=O [JMA26] ([dV][dC]FFD-Cysteamide; disulfide 2-C; lactam N-5)	460	high cytotoxicity	
CC(C)[C@H]1NC(=O)C[C@@H]2NC(=O)[C@H](Cc3ccc4ccccc4c3)NC(=O)[C@H](Cc3ccc4ccccc4c3)NC(=O)[C@@H](CSSCCNC2=O)NC1=O [JMA33] ([dV][dC][2Nal][2Nal]D-Cysteamide; disulfide 2-C; lactam N-5)	33		
CC(C)[C@H]1NC(=O)C[C@@H]2NC(=O)[C@H](Cc3ccccc3)NC(=O)[C@H](Cc3ccc4ccccc4c3)NC(=O)[C@@H](CSSCCNC2=O)NC1=O [JMA46] ([dV][dC][2Nal]FD-Cysteamide; disulfide 2-C; lactam N-5)	170		
CC(C)[C@H]1NC(=O)C[C@@H]2NC(=O)[C@H](Cc3cccc4ccccc34)NC(=O)[C@H](Cc3cccc4ccccc34)NC(=O)[C@@H](CSSCCNC2=O)NC1=O [JMA47] ([dV][dC][1Nal][1Nal]D-Cysteamide; disulfide 2-C; lactam N-5)	47		
CC(/C=C/C(=O)NO)=C\[C@@H](C)C(=O)c1ccc(N(C)C)cc1 [TSA, Trichostatin A]			30-40%
